Key:
P. aeruginosa = assay: Disc test on agar medium; format: cell-based, Pseudomonas aeruginosa; conditions: discs, gentamicin disc 10 µg
Description: (§1) Initially, the compounds were tested on an agar medium using commercial discs with gentamicin (10 µg) as a standard against B. cereus and P. aeruginosa used as model bacterial strains. As a result, no inhibition zones were observed around the discs with the compounds against both tested strains. With gentamicin, zones (mm in diameter) of 15 mm against B. cereus, and 12 mm against P. aeruginosa, were measured.
(§2) The antibacterial activity of the investigated compounds was tested against Gram-positive Bacillus cereus and Gram-negative Pseudomonas aeruginosa used as model strains (Collection of the Institute of Microbiology, Bulgarian Academy of Sciences). Microbial cultures were maintained at 4 °C on meat-peptone agar (MPA) slants and transferred monthly.

B. cereus = assay: Disc test on agar medium; format: cell-based, Bacillus cereus; conditions: discs, gentamicin disc 10 µg
Description: as §1, §2

[1] = tested on: replication of HAdV-5 in HEp-2 cells; assay: Antiviral activity assay, CPE inhibition; format: cell-based; conditions: Human adenovirus sp., HEp-2, read-out: IC50, antiviral activity on the replication of HAdV-5
Description: For checking the viral load, the antiviral screening based on the viral yield reduction technique was used. The cytopathic inhibition assay (CPE) utilizes 100 CCID50 loading in 0.1 mL of a monolayer of confluent cells in 96-well plates. After 1 h of virus adsorption, the extract was added in various concentrations, and cells were incubated for 48 h at 37 °C. The viable cells were stained according to the neutral red uptake procedure and the percentage of CPE inhibition for each concentration of the test sample was calculated using the following formula: % CPE = [ODtest sample − ODvirus control]/[ODtoxicity control − ODvirus control] × 100. The concentration of the material inhibition 50% of viral replication when compared to the virus control was defined as the 50% inhibitory concentration (IC50). The ratio CC50/IC50 was calculated to evaluate the selectivity index (SI).

| SMILES | inhibition zone (mm in diameter) (P. aeruginosa) [mm] | inhibition zone (mm in diameter) (B. cereus) [mm] | IC50 [1] [µM] |
| --- | --- | --- | --- |
| CNC(C)C1CCC(N)C(OC2C(N)CC(N)C(OC3OCC(C)(O)C(NC)C3O)C2O)O1 (stereo not drawn) [gentamicin] | 12 | 15 |  |
| NC(=O)c1ncn([C@@H]2O[C@H](CO)[C@@H](O)[C@H]2O)n1 [Ribavirin] |  |  | 115 |

Reference: paper PMC9332204, “Study of Novel Peptides for Antimicrobial Protection in Solution and on Cotton Fabric” (Molecules, 2022)
